Paper PMC13058478 (Frontiers in Pharmacology, 2026)

Assay: Caco-2 passive permeability A to B
Assay type: in vitro ADME
Settings: Caco-2, A to B
Description: The concentration of each compound in the respective samples was determined by LC-MS.

## CC(C)NCC(O)COc1cccc2ccccc12 (stereo not shown) [Propranolol]
  Apparent passive permeability A to B Paap, Min: 18.41 10^-6 cm/s
